Measurements from patent US20230390397A1, “SYSTEM, METHOD AND PROCESS FOR SELF-STERILIZATION OF IODINE-[…]” (HDR LLC, priority 2022, published 2023).
≈ marks a conversion by molar mass, not a printed value. Where “and” joins values, the source holds several entries; their conditions need not be identical. Equal entries are not always repeated. Where two headings read alike, the source gives them in different places.

Assays:
[1] = Evaporation of I2 from I2 and I- mixed solutions in an open and well-ventilated space; assay type: physicochemical; settings: initial I2 concentration 0.99 mm, open system
From the text: The effects of temperature, concentration of I2, and presence of I— on the evaporation of I2 in I2 and I— mixed solutions were investigated in an open and well-ventilated space. From the experiments, it was confirmed that the evaporation rate of I2 increased exponentially as the solution temperature increased, showing a similar trend with temperature dependence of the saturated vapor pressure of I2.
The phenomenon that I2 evaporation was expedited at higher temperature can be explained by temperature dependency of the evaporation enthalpy and saturated vapor pressure. For an open system, the vapor pressure of elemental iodine increases about 14 torr, or 0.27 psi.

[2] = cited from earlier work

## II [Elemental iodine, Elemental iodine (I2)]
[1]; 50° C.
  lapsed time required to reduce less than 10% of the initial concentration: ~30 min
[1]; 80° C.
  lapsed time required to reduce less than 10% of the initial concentration: ~7 min
[2]; 20° C.
  free iodine which is soluble in water: 290 ppm
  solubility in water: 0.29 g/L (≈ 1.14 mM)
[2]; 25° C.
  solubility in water: 0.33 g/l and 1.2 mM
[2]; 50° C.
  solubility in water: 0.78 g/L (≈ 3.07 mM)
[2]; 70° C.
  free iodine which is soluble in water: 1,100 ppm
[2]; 80° C.
  free iodine which is soluble in water: 1,250 ppm
  solubility in water: 1.25 g/L (≈ 4.92 mM)
